Each structure is given as a SMILES string.

For one data set, the system named is HRH2/cAMP/PKA axis. Nature of the data set: PLS assessment upon perturbation of the HRH2/cAMP/PKA axis in Huh7.5.1dif cells. Particulars: histamine 10 μM + nizatidine 10 μM, 48 hours. In kind it is cell-based, human. The method, then: Histamine, 8-CPT, cAMP and H89 Treatment. Huh7.5.1^dif cells were cultured in DMEM containing 1% FBS and 1% DMSO and incubated with histamine (10 μM) or histamine+nizatidine (10 μM) for 48 hours. Fresh medium containing histamine was replenished every 12 hours. For 8-CPT cAMP and H89, Huh7.5.1^dif cells cultured in DMEM 1% DMSO and 1% FBS were incubated with 8-CPT cAMP (100 μM), H89 (1 μM) or DMSO as a control for 48 hours. Fresh medium containing 8-CPT cAMP was replenished every 12 hours.
Transcriptomic Analysis and PLS Calculation. Gene expression profiling and the 32 gene PLS 32 profiling were performed using 250-500 ng total RNA by using either nCounter Digital Analyzer system (NanoString) or the HumanHT-12 beadarray (Illumina) for the time-course experiments. PLS gene expression was normalized according to 6 housekeeping gene expression using GenePattern genomic analysis toolkits (Hoshida, PLOS ONE, 2010, 5: e15543; Peck et al., Genome Biol., 2006, 7: R61; Reich et al., Nature Genet., 2006, 38: 500-501). Induction or suppression of PLS risk signature was determined as previously reported by using Gene Set Enrichment Analysis (GSEA), implemented in GenePattern genomic analysis toolkits (Hoshida, PLOS ONE, 2010, 5: e15543; Peck et al., Genome Biol., 2006, 7: R61; Reich et al., Nature Genet., 2006, 38: 500-501). PLS was always determined by using CTRL cells as references. Results are presented as simplified heatmaps showing the classification of PLS global status as poor or good prognosis and the significance of induction/suppression of PLS genes (log 10 of false discovery rate (FDR) values). For each experiment, heatmaps show: in the upper part: the classification of PLS global status as poor (orange) or good (green) prognosis, and in the bottom part: the significance of induction (red) or suppression (blue) of PLS poor- or good-prognosis genes. Global status corresponds to the difference between low risk- and high risk-gene expression. The statistic tests, normalized enrichment score (NES) and FDR values are provided for each PLS experiment (poor- and good-prognosis genes variation and global status) in the Source Data file.

The next data set deals with Huh7.5.1dif cells. Nature of the data set: IL6 and TNFα expression by qRT-PCR in HCV-infected Huh7.5.1dif cells. In kind it is cell-based, human. The method, then:
FIG. 8. The Huh7.5.1^dif Cell-Based System Recapitulates Transcriptional Dysregulations in Human Macrophages. (A-B) HRH2 knockdown leads to CREB5 downregulation in Huh7.5.1^dif cells similar to macrophages. Macrophages (A) and Huh7.5.1^dif cells (B) were transfected with siRNA CTRL or targeting HRH2 expression and activated using LPS+IFNγ or HCV-infection respectively. HRH2, CREB5 expression and the HCV viral load were analyzed by qRT-PCR. (Macrophage=three independent experiments n=8; Huh7.5.1^dif cells=two independent experiments n=6). (C) Nizatidine treatment decreases IL6 and TNF expression in Huh7.5.1^dif cells similar to macrophage. Huh7.5.1^dif cells were HCV infected and treated with nizatidine. IL6 and TNFα expression were analyzed by qRT-PCR. […]
Real-Time qRT-PCR. cDNAs were synthetized by reverse transcription using SuperScript III First-Strand Synthesis SuperMix (Life Technologies). Expression of […] IL6, TNFα and IL1β was analyzed by quantitative real-time PCR using TaqMan Gene Expression Assays (Thermo Fisher Scientific) on the CFX96 Touch Real-Time PCR Detection System PCR system (Bio-Rad). Expression of human CCL2 and TGF was analyzed using iTaq™ Universal SYBR® Green Supermix (Bio-Rad). The 2^−ΔCT method was used for relative quantification (Schmittgen and Livak, Nature Protoc., 2008, 3: 1101-1108) of mRNA with normalization to 18S. […]

Data set [1] relates to patient-derived HCC tumor spheroids. Nature of the data set: Cell viability (ATP, CellTiter-Glo) of patient-derived HCC tumorspheroids. In kind it is cell-based, human. Conditions: nizatidine 50 μM, 4 days, ATP levels, compared to DMSO; 6 patients. The method, then: Patient-Derived HCC Tumor Spheroids. Tumorspheroids were generated from liver tissues from HCC patients undergoing surgical resection and dissociated using the Human Tumor Dissociation Kit. Total cell populations including epithelical (i.e., cancer cells/hepatocytes) and NPCs were used to generate multicellular tumorspheroids in Corning® 96-well Black/Clear Bottom Low Flange Ultra-Low Attachment Microplates (Corning). After 48 hours, HCC-derived spheroids were treated with nizatidine 50 μM, sorafenib 10 μM or DMSO vehicle control for 4 days. Fresh medium containing DMSO or drugs was added every day. Cell viability was assessed using CellTiter-Glo® (Luminescent Cell Viability Assay), according to manufacturer's instruction.

Data set [2] relates to primary human hepatocytes (PHH). Nature of the data set: Cell viability of primary human hepatocytes in 3D culture. In kind it is cell-based. Conditions: 4 days after nizatidine treatment, compared to DMSO. The method, then: FIG. 9. Proof-of-concept for Therapeutic Impact of Nizatidine in Patient-Derived HCC Spheroids. (A) Absent effect on cell viability in PHH, assessed 4 days after nizatidine treatment in 3D culture. […] (B) Nizatidine decreases HCC cell viability in a 3D patient-derived tumorspheroid model. HCC spheroids were generated from patient HCC tissues with different etiologies. Cell viability was assessed 4 days after treatment by measuring ATP levels. […] The pictures show representative image of patient-derived tumorspheroids (magnification X40). NASH=non-alcoholic steatohepatitis; ALD=alcoholic liver disease. Source data are provided as a Source Data file.

For data set [3] the following is noted: patients, after a 300 mg oral dose; cited from earlier work.

Regarding `CNC(=C[N+](=O)[O-])NCCSCc1csc(CN(C)C)n1` [Nizatidine, N-[2-[[[2-[(dimethylamino)methyl]-4-thizaolyl]methyl]thio]ethyl]-N′-methyl-2-nitro-1,1-ethene-diamine], the “histamine-induced PLS poor-prognosis status” value in the data set with HRH2/cAMP/PKA axis is “reversal”. Also, in the data set on Huh7.5.1dif cells, the IL6 expression entry is “decreased” and the TNFα expression result was “decreased”. Besides, the tumor spheroid viability result in data set [1] is “significant decrease of tumor spheroid viability in 4 out of 6 patients”. The PHH viability entry in data set [2] was “no effect”. Further, the plasma concentrations in data set [3] was 2000 to 4000 nM.

The values are drawn from patent US20230349922A1, “H2 Blockers Targeting Liver Macrophages for the Prevention and Treatment of Liver Disease and Cancer” (Université de Strasbourg, priority 2020, published 2023).
